Test results published in US6043217A, “Amide derivative of amythiamicin” (Zaidan Hojin Biseibutsu Kagaku Kenyu Kai, priority 1996, dated 2000).

Key:
Assay type in all cases: cell-based
[1] = test system: Staphylococcus aureus FDA 209P; assay: MIC, standard serial dilution method; details: Muller-Hinton agar medium, 37° C.
[2] = test system: Staphylococcus aureus Smith; assay: MIC, standard serial dilution method; details: Muller-Hinton agar medium, 37° C.
[3] = test system: Staphylococcus aureus MS 9610; assay: MIC, standard serial dilution method; details: Muller-Hinton agar medium, 37° C.
[4] = test system: Staphylococcus aureus No. 5 (MRSA); assay: MIC, standard serial dilution method; details: Muller-Hinton agar medium, 37° C.
[5] = test system: Staphylococcus aureus No. 17 (MRSA); assay: MIC, standard serial dilution method; details: Muller-Hinton agar medium, 37° C.
[6] = test system: Staphylococcus aureus MS 16526; assay: MIC, standard serial dilution method; details: Muller-Hinton agar medium, 37° C.
[7] = test system: Staphylococcus aureus TY-0428; assay: MIC, standard serial dilution method; details: Muller-Hinton agar medium, 37° C.
[8] = test system: Micrococcus luteus FDA 16; assay: MIC, standard serial dilution method; details: Muller-Hinton agar medium, 37° C.
[9] = test system: Micrococcus luteus IFO 3333; assay: MIC, standard serial dilution method; details: Muller-Hinton agar medium, 37° C.
[10] = test system: Micrococcus luteus PIC 1001; assay: MIC, standard serial dilution method; details: Muller-Hinton agar medium, 37° C.
[11] = test system: Bacillus anthracis; details: Muller-Hinton agar medium, 37° C.
[12] = test system: Bacillus subtilis NRRL B-558; assay: MIC, standard serial dilution method; details: Muller-Hinton agar medium, 37° C.
[13] = test system: Bacillus subtilis PCI 219; assay: MIC, standard serial dilution method; details: Muller-Hinton agar medium, 37° C.
[14] = test system: Bacillus cereus ATCC 10702; assay: MIC, standard serial dilution method; details: Muller-Hinton agar medium, 37° C.
[15] = test system: Corynebacterium bovis 1810; assay: MIC, standard serial dilution method; details: Muller-Hinton agar medium, 37° C.
[16] = test system: Escherichia coli NIHJ; assay: MIC, standard serial dilution method; details: Muller-Hinton agar medium, 37° C.
[17] = test system: Escherichia coli K-12; assay: MIC, standard serial dilution method; details: Muller-Hinton agar medium, 37° C.
[18] = test system: Escherichia coli BEM 11; assay: MIC, standard serial dilution method; details: Muller-Hinton agar medium, 37° C.
[19] = test system: Escherichia coli BEM 1121; assay: MIC, standard serial dilution method; details: Muller-Hinton agar medium, 37° C.
[20] = test system: Escherichia coli BE 1186; assay: MIC, standard serial dilution method; details: Muller-Hinton agar medium, 37° C.
[21] = test system: Shigella dysenteria JS 11910; assay: MIC, standard serial dilution method; details: Muller-Hinton agar medium, 37° C.
[22] = test system: Escherichia coli K-12 ML 1692; assay: MIC, standard serial dilution method; details: Muller-Hinton agar medium, 37° C.
Method: (§1) The antibacterial activities of the amythiamicin amide derivative of the general formula (I) according to this invention are now concretely described. Compounds No. 1 to No. 11 according to this invention, which were respectively prepared in Examples 1 to 11 hereinafter given, were tested as the test compounds for their minimum inhibitory concentrations (MIC.) (μg/ml) against growth of a variety of test microorganisms by a standard serial dilution method. In the tests, the incubation medium used was Muller-Hinton agar medium and the incubation temperature was 37° C. The test results are shown as antibacterial spectra in the following Tables 2 and 3.

[23] = test system: Shigella clexnerl JS 11749; assay: MIC, standard serial dilution method; details: Muller-Hinton agar medium, 37° C.
Method: as §1

[24] = test system: Shigella sonnei JS 11746; assay: MIC, standard serial dilution method; details: Muller-Hinton agar medium, 37° C.
Method: as §1

[25] = test system: Salmonella typhi T-63; assay: MIC, standard serial dilution method; details: Muller-Hinton agar medium, 37° C.
[26] = test system: Salmonella enteritidis 1891; assay: MIC, standard serial dilution method; details: Muller-Hinton agar medium, 37° C.
[27] = test system: Proteus vulgaris OX 19; assay: MIC, standard serial dilution method; details: Muller-Hinton agar medium, 37° C.
[28] = test system: Proteus mirabilis IFM OM-9; assay: MIC, standard serial dilution method; details: Muller-Hinton agar medium, 37° C.
[29] = test system: Providencia rettgeri GN 311; assay: MIC, standard serial dilution method; details: Muller-Hinton agar medium, 37° C.
[30] = test system: Providencia rettgeri GN 466; assay: MIC, standard serial dilution method; details: Muller-Hinton agar medium, 37° C.
[31] = test system: Serratia marcescens; assay: MIC, standard serial dilution method; details: Muller-Hinton agar medium, 37° C.
[32] = test system: Pseudomonas aeruginosa A3; assay: MIC, standard serial dilution method; details: Muller-Hinton agar medium, 37° C.
[33] = test system: Pseudomonas aeruginosa GN315; assay: MIC, standard serial dilution method; details: Muller-Hinton agar medium, 37° C.
[34] = test system: Klebsiella pneumonia PCI 602; assay: MIC, standard serial dilution method; details: Klebsiella pneumonia PCI 602 (Table 2); Muller-Hinton agar medium, 37° C.
[35] = test system: Candida albicans 3147; assay: MIC, standard serial dilution method; details: Muller-Hinton agar medium, 37° C.

Row | SMILES | Minimum growth inhibitory concentrations (MIC.) [1] [µg/mL] | Minimum growth inhibitory concentrations (MIC.) [2] [µg/mL] | Minimum growth inhibitory concentrations (MIC.) [3] [µg/mL] | Minimum growth inhibitory concentrations (MIC.) [4] [µg/mL] | Minimum growth inhibitory concentrations (MIC.) [5] [µg/mL] | Minimum growth inhibitory concentrations (MIC.) [6] [µg/mL] | Minimum growth inhibitory concentrations (MIC.) [7] [µg/mL] | Minimum growth inhibitory concentrations (MIC.) [8] [µg/mL] | Minimum growth inhibitory concentrations (MIC.) [9] [µg/mL] | Minimum growth inhibitory concentrations (MIC.) [10] [µg/mL] | Minimum growth inhibitory concentrations (MIC.) [11] [µg/mL] | Minimum growth inhibitory concentrations (MIC.) [12] [µg/mL] | Minimum growth inhibitory concentrations (MIC.) [13] [µg/mL] | Minimum growth inhibitory concentrations (MIC.) [14] [µg/mL] | Minimum growth inhibitory concentrations (MIC.) [15] [µg/mL] | Minimum growth inhibitory concentrations (MIC.) [16] [µg/mL] | Minimum growth inhibitory concentrations (MIC.) [17] [µg/mL] | Minimum growth inhibitory concentrations (MIC.) [18] [µg/mL] | Minimum growth inhibitory concentrations (MIC.) [19] [µg/mL] | Minimum growth inhibitory concentrations (MIC.) [20] [µg/mL] | other results
1 | CNC(=O)CC1NC(=O)c2csc(n2)-c2ccc(-c3nc(C(=O)NCCCCCC(=O)OC)cs3)nc2-c2csc(n2)-c2csc(n2)C(C(C)C)NC(=O)CNC(=O)c2csc(n2)C(C(C)C)NC(=O)c2nc1sc2C (stereo not shown) [Compound No. 1] | 50 | > 100 | > 100 | > 100 | > 100 | > 100 | > 100 | > 100 | > 100 | 3.13 | 0.98 | > 100 | > 100 | 3.13 | > 100 | > 100 | > 100 | > 100 | > 100 | > 100 | Minimum growth inhibitory concentrations (MIC.) [21]: > 100 µg/mL; Minimum growth inhibitory concentrations (MIC.) [22]: > 100 µg/mL; Minimum growth inhibitory concentrations (MIC.) [23]: > 100 µg/mL; Minimum growth inhibitory concentrations (MIC.) [24]: > 100 µg/mL; Minimum growth inhibitory concentrations (MIC.) [25]: > 100 µg/mL; Minimum growth inhibitory concentrations (MIC.) [26]: > 100 µg/mL; Minimum growth inhibitory concentrations (MIC.) [27]: > 100 µg/mL; Minimum growth inhibitory concentrations (MIC.) [28]: > 100 µg/mL; Minimum growth inhibitory concentrations (MIC.) [29]: > 100 µg/mL; Minimum growth inhibitory concentrations (MIC.) [30]: > 100 µg/mL; Minimum growth inhibitory concentrations (MIC.) [31]: > 100 µg/mL; Minimum growth inhibitory concentrations (MIC.) [32]: > 50 µg/mL; Minimum growth inhibitory concentrations (MIC.) [33]: > 100 µg/mL; Minimum growth inhibitory concentrations (MIC.) [34]: > 100 µg/mL; Minimum growth inhibitory concentrations (MIC.) [35]: > 100 µg/mL
2 | CNC(=O)CC1NC(=O)c2csc(n2)-c2ccc(-c3nc(C(=O)NCCCCCC(=O)O)cs3)nc2-c2csc(n2)-c2csc(n2)C(C(C)C)NC(=O)CNC(=O)c2csc(n2)C(C(C)C)NC(=O)c2nc1sc2C (stereo not shown) [Compound No. 2] | 0.1 | 0.1 | 0.2 | 0.2 | 0.2 | 0.2 | 0.2 | 0.39 | 0.39 | 0.1 | < 0.03 | 1.56 | 0.2 | 0.1 | 0.31 | > 100 | > 100 | > 100 | > 100 | > 100 | Minimum growth inhibitory concentrations (MIC.) [21]: 3.13 µg/mL; Minimum growth inhibitory concentrations (MIC.) [22]: > 100 µg/mL; Minimum growth inhibitory concentrations (MIC.) [23]: > 100 µg/mL; Minimum growth inhibitory concentrations (MIC.) [24]: > 100 µg/mL; Minimum growth inhibitory concentrations (MIC.) [25]: > 100 µg/mL; Minimum growth inhibitory concentrations (MIC.) [26]: 6.25 µg/mL; Minimum growth inhibitory concentrations (MIC.) [27]: > 100 µg/mL; Minimum growth inhibitory concentrations (MIC.) [28]: > 100 µg/mL; Minimum growth inhibitory concentrations (MIC.) [29]: > 100 µg/mL; Minimum growth inhibitory concentrations (MIC.) [30]: > 100 µg/mL; Minimum growth inhibitory concentrations (MIC.) [31]: > 100 µg/mL; Minimum growth inhibitory concentrations (MIC.) [32]: > 50 µg/mL; Minimum growth inhibitory concentrations (MIC.) [33]: > 100 µg/mL; Minimum growth inhibitory concentrations (MIC.) [34]: > 100 µg/mL; Minimum growth inhibitory concentrations (MIC.) [35]: > 100 µg/mL
